Earlier results in patent publication US3959464A, “Microencapsulated methyl and ethyl parathion insecticide in aqueous carrier” (Pennwalt Corporation, priority 1971, dated 1976).

Experiments:
insects = conditions: ordinary methods of application
food crops = conditions: unmodified, unencapsulated
[1] = for effect of moisture (hydrolysis): contacted by moisture; for degradation in the field: hydrolysis and oxidation reactions

SMILES	period of pesticidal effectiveness in the field (insects)	phytotoxicity (food crops)	effect of moisture (hydrolysis) [1]	degradation in the field [1]
CCOP(=S)(OCC)Oc1ccc([N+](=O)[O-])cc1 [ethyl parathion, O,O-diethyl-O-p-nitrophenol phosphorothioate]	only several days	chemical phytotoxicity to various food crops	rendered ineffectual by hydrolysis when contacted by moisture	rapid degradation in the field
COP(=S)(OC)Oc1ccc([N+](=O)[O-])cc1 [methyl parathion, O,O-dimethyl-O-p-nitrophenol phosphorothioate]	only several days	chemical phytotoxicity to various food crops	rendered ineffectual by hydrolysis when contacted by moisture	rapid degradation in the field
